Here are results for 52 substances from patent US10004791B2, “Peptide vaccines against PCSK9” (AFFIRIS AG, priority 2014, dated 2018).

The nature of experiment [1]: Total cholesterol assay in plasma of immunized mice (15 μg net peptide, four injections). The experiment is classed as in vivo, BALB/c mice. To be noted: for TC in % (FIG. 2A) / TC in % (FIG. 2B): mean total cholesterol, single AA exchange; for TC in % (FIG. 2A): n=3 mice/group, negative control group (irrelevant peptide) set as 100%; for TC in % (FIG. 2B) / TC in % multiple AA exchanges (FIG. 2C): n=5 mice/group, negative control group set as 100%; for TC in % multiple AA exchanges (FIG. 2C): total cholesterol. As to the method: (§1) The peptides were conjugated via the heterobifunctional linker GMBS (4-Maleimidobutyric acid N-hydroxysuccinimide ester) to KLH (Keyhole Limpet Hemocyanin).
[…] Mice had access to food and water ad libitum and were kept under a 12 h light/dark cycle. The age of mice at the beginning of experiments was 8 to 10 weeks.
(§2) Mice were injected four times in 2 week intervals with 15 μg of net peptide coupled to KLH and adsorbed to Alhydrogel as adjuvant in a volume of 1 ml in total.
(§3) Blood was taken approximately 2 weeks after the final injection.
All plasma samples were collected two weeks after the final immunization and equality treated. Total cholesterol (TC) measurements were performed simultaneously for all samples and side by side compared to their related controls (originals sequence and negative control). The simultaneous quantitative measurement of the plasma TC levels in mg/dL was measured by LabAssay™ Cholesterol Kit (Wako). In details, upon incubation with the chromogen reagent containing cholesterol esterase, the cholesterol esters in the samples were decomposed into free cholesterol and fatty acids. Subsequently the free cholesterol was oxidized by the cholesterol oxidase, leading to the simultaneously release of hydrogen peroxide. The produced hydrogen peroxide let DAOS and 4-Aminoantipyrin oxidize and condensate quantitatively by peroxidase (HRP), which produced blue pigment. Optical density was measured at 600 nm and quantification of the TC was calculated according to a standard curve.

The subject of another experiment is human PCSK9 protein. In words: Protein ELISA: titers of vaccine-induced PCSK9-specific antibodies in plasma of immunized mice. The experiment is classed as in vivo, BALB/c mice. To be noted: for titers against huPCSK9 (ODmax/2): mean titer, n=5 BALB/c mice/group, s.c. 4 x 15 μg net peptide coupled to KLH, Alhydrogel, plasma 2 weeks after final injection, titer = serum dilution at 50% ODmax; for capacity to elicit a humoral immune response targeting PCSK9: result in words. Here is the method:
as §1
5 BALB/c mice were subcutaneously immunized. Mice had access to food and water ad libitum and were kept under a 12 h light/dark cycle. The age of mice at the beginning of experiments was 8 to 10 weeks.
as §2, §3
To determine the immunogenicity of the vaccines, and thus to identify the amount of PCSK9 specific antibodies in the plasma of immunized animals, ELISA immunoassay was performed. The ELISA immunoassay generates a signal which can be easily quantified and represents a quantitative measure of the amount of vaccine induced PCSK9-specific antibodies. Thus the titers as measured by ELISA correlate directly with the amount (μg/ml) of target specific antibodies in the plasma sample of treated animals. All plasma samples were collected two weeks after the final immunization and equality treated. In order to have a direct comparison, the quantitative evaluation by the PCSK9 Protein ELISA immunoassay of the vaccine induced PCSK9-specific antibodies and the comparison to their relative controls (originals sequence and negative control) was performed for all samples simultaneously. For this purpose, ELISA plates were coated with recombinantly expressed human PCSK9 protein. Unspecific binding was blocked by incubation with blocking buffer (1% BSA in PBS). Appropriate serum dilutions (with a starting dilution of 1:100) were added to the wells, serially diluted 1:2 fold (12 dilution steps) and incubated for approximately 1 hour. Bound antibodies were detected by incubation with anti-mouse IgG antibody, ABTS was added as substrate and the OD at 405 nm was measured. As negative control sera from the control group injected with an irrelevant peptide were analyzed. The titers were defined as the dilution of the serum where 50% of the ODmax in the assay is reached.
In general terms: ELISA stands for enzyme-linked immunosorbent assay.

A further experiment relates to huPCSK9. In words: Inhibition of furin cleavage of huPCSK9 by plasma from vaccinated mice (SDS-PAGE / Western blot). The experiment is classed as biochemical, human. As to conditions: 4 μl mouse plasma, 250 ng biotinylated huPCSK9, 2 U furin overnight RT; FIG. 3; result in words. Here is the method:
The furin cleavage reaction was performed with 2 Units Furin (˜110 ng) (New England Biolabs) in PCSK9 buffer containing 100 mM Hepes Buffer pH 7.5, 5% Triton-X and 1 mM CaCl. In details, 4 μl mouse plasma from VARIOTOPE®s vaccinated mice was incubated with 250 ng biotinylated huPCSK9 (BPS Bioscience) in PCSK9 buffer for 1 h at room temperature. Subsequently, 2U Furin (˜110 ng) (New England Biolabs) was added to the reaction solution and incubated over night at RT. The reaction product was analyzed by SDS-PAGE under reducing conditions.
(A western blot detects proteins with antibodies after separation by electrophoresis.)

Take 1 (PEEDGTRFHRQASK) [compound 1]: in experiment [1], the “TC in % (FIG. 2A)” value was determined as 81%, the “TC in % (FIG. 2B)” value was 89% and the “TC in % multiple AA exchanges (FIG. 2C)” value was 81%. Further, the “titers against huPCSK9 (ODmax/2)” value with human PCSK9 protein turned out to be 12074.
Take 2 (AEEDGTRFHRQASK) [compound 2]: in the experiment on human PCSK9 protein, the “titers against huPCSK9 (ODmax/2)” value came out at 36869.
On the same count and under the same terms, under 3 (PAEDGTRFHRQASK) [compound 3] stands 2774.
Still for that read-out and setting: under 4 (PEEDGTRFARQASK) [compound 4] stands 21494; under 5 (PEEDGTRFHAQASK) [compound 5], 33442.
Same read-out and setting: under 6 (PEEDGTRFHRAASK) [compound 6] stands 22475.
On to 7 (PEEDGTRFHRQAAK) [compound 7], for which the “titers against huPCSK9 (ODmax/2)” value in the experiment on human PCSK9 protein was 15676.
Same read-out and setting: under 8 (PEEDGTRFHRQASA) [compound 8] stands 23638; under 9 (TEEDGTRFHRQASK) [compound 9], 23944.
Turning to 10 (PQEDGTRFHRQASK) [compound 10], the “TC in % (FIG. 2A)” value in experiment [1] was 78%. Also, in the experiment with human PCSK9 protein, the “titers against huPCSK9 (ODmax/2)” value came out at 29228. Also, the “inhibition of furin cleavage of mature PCSK9 (aa153-692) / formation of truncated PCSK9 (aa219-692, ~50 kDa) by induced antibodies” value with huPCSK9 was “inhibit the formation of truncated furin cleaved PCSK9”.
Take 11 (PKEDGTRFHRQASK) [compound 11]: the “titers against huPCSK9 (ODmax/2)” value with human PCSK9 protein amounted to 6610.
On the same count and under the same terms, the value for 12 (PEEDGSRFHRQASK) [compound 12] was 12636; that for 13 (PEEDGTRFHQQASK) [compound 13] was 18490; that for 14 (PEEDGTRFHKQASK) [compound 14] was 17795.
On to 15 (PEEDGTRFHMQASK) [compound 15], for which the “titers against huPCSK9 (ODmax/2)” value in the experiment on human PCSK9 protein turned out to be 15556.
Same read-out and setting: the value for 16 (PEEDGTRFHREASK) [compound 16] was 18670.
Consider 17 (PEEDGTRFHRRASK) [compound 17], for which the “TC in % (FIG. 2A)” value in experiment [1] is on record as 81%. Besides, the “titers against huPCSK9 (ODmax/2)” value with human PCSK9 protein was 28996. In addition, the “inhibition of furin cleavage of mature PCSK9 (aa153-692) / formation of truncated PCSK9 (aa219-692, ~50 kDa) by induced antibodies” value in the experiment with huPCSK9 is on record as “inhibit the formation of truncated furin cleaved PCSK9”.
As to 18 (PEEDGTRFHRKASK) [compound 18], the “TC in % (FIG. 2A)” value in experiment [1] was 81%. Moreover, the “titers against huPCSK9 (ODmax/2)” value in the experiment on human PCSK9 protein is 30537. Further, in the experiment on huPCSK9, the “inhibition of furin cleavage of mature PCSK9 (aa153-692) / formation of truncated PCSK9 (aa219-692, ~50 kDa) by induced antibodies” value is listed as “inhibit the formation of truncated furin cleaved PCSK9”.
As for 19 (PEEDGTRFHRQSSK) [compound 19], the “titers against huPCSK9 (ODmax/2)” value with human PCSK9 protein turned out to be 41310.
On the same count and under the same terms, under 20 (PEEDGTRFHRQATK) [compound 20] stands 10813; under 21 (PEEDGTRFHRQANK) [compound 21], 15303; under 22 (PEEDGTRFHRQALK) [compound 22], 8694.
For 23 (PEEDGTRFHRQASR) [compound 23], the “TC in % (FIG. 2A)” value in experiment [1] is reported as 70%. Besides, the “titers against huPCSK9 (ODmax/2)” value in the experiment on human PCSK9 protein came to 14722.
For 24 (PEEDGTRFHRQASL) [compound 24], the “titers against huPCSK9 (ODmax/2)” value in the experiment with human PCSK9 protein is recorded as 19471.
For 25 (KEEDGTRFHRQASK) [compound 25], the “titers against huPCSK9 (ODmax/2)” value in the experiment on human PCSK9 protein was 19315.
Same read-out and setting: under 26 (PEWDGTRFHRQASK) [compound 26] stands 840; under 27 (PEEDKTRFHRQASK) [compound 27], 7154.
Still for that read-out and setting: the value for 28 (PEEDGTGFHRQASK) [compound 28] was 0.
The same measure, in the same setting: under 29 (PEEDGTRFSRQASK) [compound 29] stands 33111; under 30 (PEEDGTRFTRQASK) [compound 30], 9519; under 31 (PEEDGTRFVRQASK) [compound 31], 11850.
32 (PEEDGTRFGRQASK) [compound 32]: the “titers against huPCSK9 (ODmax/2)” value in the experiment with human PCSK9 protein amounted to 822.
The same measure, in the same setting: the value for 33 (PEEDGTRFMRQASK) [compound 33] was 10651; that for 34 (PEEDGTRFHPQASK) [compound 34] was 20318.
With 35 (PEEDGTRFHSQASK) [compound 35], the “titers against huPCSK9 (ODmax/2)” value in the experiment with human PCSK9 protein came to 29223.
In the case of 36 (PEEDGTRFHRTASK) [compound 36], the “TC in % (FIG. 2B)” value in experiment [1] was 72%. In the experiment with human PCSK9 protein, the “titers against huPCSK9 (ODmax/2)” value is 29984.
On to 37 (PEEDGTRFHRQTSK) [compound 37], for which, in the experiment on human PCSK9 protein, the “titers against huPCSK9 (ODmax/2)” value was 25826.
With 38 (PEEDGTRFHRQASS) [compound 38], in the experiment on human PCSK9 protein, the “titers against huPCSK9 (ODmax/2)” value was 31481.
Same read-out and setting: the value for 39 (PEEDGTRFHRQAST) [compound 39] was 13172.
For the substance 40 (PEEDGTRFHRQASV) [compound 40], the “titers against huPCSK9 (ODmax/2)” value with human PCSK9 protein was found to be 22678.
With 41 (PEEDGSRFHKQASK) [compound 41], the “TC in % multiple AA exchanges (FIG. 2C)” value in experiment [1] turned out to be 66%. Also, the “titers against huPCSK9 (ODmax/2)” value in the experiment with human PCSK9 protein stood at 37296.
Take 42 (PEEDGSRFHMQASK) [compound 42]: the “titers against huPCSK9 (ODmax/2)” value with human PCSK9 protein came to 18599.
The same measure, in the same setting: the value for 43 (PEEDGSRFHRRASK) [compound 43] was 29435.
As to 44 (PEEDGSRFHRQATK) [compound 44], in experiment [1], the “TC in % multiple AA exchanges (FIG. 2C)” value is 74%. Also, the “titers against huPCSK9 (ODmax/2)” value in the experiment on human PCSK9 protein was found to be 20684.
As for 45 (PEEDGSRFHRRATK) [compound 45], the “titers against huPCSK9 (ODmax/2)” value in the experiment with human PCSK9 protein amounted to 11097.
Regarding PEEDGTGFHRQASK [SEQ ID NO: 28], the “capacity to elicit a humoral immune response targeting PCSK9” value (from here on “capacity”) in the experiment on human PCSK9 protein was “do not have the capacity to elicit a humoral immune response targeting PCSK9”.
As to PEEDGTRFGRQASK [SEQ ID NO: 32], the “capacity” value with human PCSK9 protein is “do not have the capacity to elicit a humoral immune response targeting PCSK9”.
Take PEEDGTRFHRKASK [SEQ ID NO: 18]: the “inhibition of furin cleavage of mature PCSK9 (aa153-692) / formation of truncated PCSK9 (aa219-692, ~50 kDa) by induced antibodies” value in the experiment with huPCSK9 is listed as “inhibit the furin cleavage of the mature PCSK9”.
Still for that read-out and setting: the value for PEEDGTRFHRQASR [SEQ ID NO: 23] was “inhibit the furin cleavage of the mature PCSK9”; that for PEEDGTRFHRRASK [SEQ ID NO: 17] was “inhibit the furin cleavage of the mature PCSK9”.
Take PEWDGTRFHRQASK [SEQ ID NO: 26]: the “capacity” value in the experiment on human PCSK9 protein is listed as “do not have the capacity to elicit a humoral immune response targeting PCSK9”.
Regarding PQEDGTRFHRQASK [SEQ ID NO: 10], the “inhibition of furin cleavage of mature PCSK9 (aa153-692) / formation of truncated PCSK9 (aa219-692, ~50 kDa) by induced antibodies” value in the experiment with huPCSK9 is “inhibit the furin cleavage of the mature PCSK9”.
